Assay: gradient 5% acetonitrile 3 min, to 50% in 2 min, to 85% in 15 min, held 3 min, 100 µL/min
Conditions: column: Zorbax Extend-C18 2.1 x 50 mm; eluents: water / acetonitrile, 0.1% formic acid
How it was run: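 The system's dead and dwell volumes were 40 μL and 900 μL, with a Zorbax Extend-C18 column (2.1 × 50 mm, 1.8 μm) run at 100 μL/min in water and acetonitrile containing 0.1% formic acid each. Pure standards were analyzed in mixtures of ~100 molecules by HPLC–quadrupole time-of-flight mass spectrometry in positive and negative ionization mode. Retention time was assigned from computationally picked, manually inspected adduct peaks.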

Compound	RP-LC retention time [s]
COc1ccccc1-c1c(C)nn2c(N3CCN(c4ccccn4)CC3)cc(C)nc12	604
O=C(CNC(=O)c1cc2ccccc2o1)Nc1cccc(C(F)(F)F)c1	928
CNC(=O)c1c2c(nc3ccccc13)CCC2	542
Cc1nc(-c2csc(S(=O)(=O)N3CCCC(C(=O)NCCN4CCCCCC4)C3)c2)no1 (centres undefined)	665
C(=C/c1nc2ccccc2o1)/c1ccc2c(c1)OCO2	1010
O=C(Nc1ccccc1Cl)C1=Cc2ccccc2OC1	975
CCN(CC)C(=O)c1cnc2snc(C)c2c1N1CCC(C(=O)Nc2ccc(C(C)C)cc2)CC1	1040
COc1ccc(OC)c(NC(=O)N2CCN(CCn3c(C(F)(F)F)nc4cccnc43)CC2)c1	642
O=C(Nc1ccc(Br)cc1F)C1CCN(C(=O)c2cc(-c3cccnc3)n[nH]2)CC1	676
O=S(=O)(NCC1CCN(Cc2ccc(Cl)cc2)CC1)c1ccc2c(c1)-c1oncc1CO2	708
CCc1nc2ccccc2c(=O)n1Cc1noc(-c2cc(OC)c(OC)c(OC)c2)n1	919
CCn1c(-c2cccc(C(=O)NC3CCCCC3)c2)nc2cccnc21	780
CCc1nc(OCC(=O)Nc2ccc(C)c(F)c2)c2ccccc2n1	872
CCN(CC)C(=O)c1ccc(-c2nnc3ccc(NC(=O)C4CCC4)cn23)cc1	745
CCOc1ccc(N2CCn3c2nc2c3c(=O)n(CC(=O)O)c(=O)n2C)cc1	689
Clc1cccc(-c2nnc(-c3nc(NCCC4=CCCCC4)c4ccccc4n3)o2)c1	1370
CCCCNC(=O)Cn1c(=O)cc(-c2nc(C3CC3)no2)c2ccccc21	874
O=c1ccc(N2CCCN(S(=O)(=O)c3cc(F)ccc3F)CC2)nn1-c1ccccc1	853
CCOC(=O)c1[nH]c(C)c(CCC(=O)N2CCC(C(=O)NCCC3=CCCCC3)CC2)c1C	864
Cc1nc2cc(-c3noc(COc4ccc(Cl)cc4C)n3)ccc2o1	1180
O=C1CCCN2N=C(SCc3ccc([N+](=O)[O-])cc3)SC2=N1	779
COc1cc(OC)cc(-c2nnc(Cc3nc(-c4ccccc4)no3)o2)c1	1020
CCn1nc(-c2nc(C(C)(C)C)no2)ccc1=O	883

Compound	RP-LC retention time [s]
O=C(NC1CCCCC1)C1CC(=O)N(CCc2c[nH]c3ccc(Cl)cc23)C1 (centres undefined)	817
CNC(=O)C1CN(S(=O)(=O)c2cccs2)CC12CCCCC2 (centres undefined)	697
CC(C)C(=O)Nc1ccc(C(=O)NCCNS(=O)(=O)c2ccc(F)c(Cl)c2)cc1	720
OCCN1CCN(c2ncnc3c2cnn3-c2ccc(Cl)cc2)CC1	650
CC(Oc1cccc(Cl)c1)C(=O)N1CCCN(c2cc(=O)n(C)c(=O)n2C)CC1 (centres undefined)	707
COc1ccc(C(C)NC(=O)c2ccc3ncnc(N4CCCC4)c3c2)cc1 (centres undefined)	646
CC(C)OCCCNC(=O)Cn1c2ccccc2c2cnn(C)c(=O)c21	745
O=C(Nc1cnn(-c2ncc(N3CCCC3)cn2)c1)c1ccc(C(F)(F)F)cc1	941
CCCCNc1nc(-c2ccc(Cl)cc2)nc2ccccc12	873
CCOC(=O)c1nc(NCCCN2CCC(Cc3ccccc3)CC2)c2ccccc2n1	690
Cc1cc(=O)n(CC(=O)Nc2cc(F)cc(F)c2)c(N2CCCC2)n1	670
O=C(NCc1cccnc1)C1c2ccccc2C(=O)N1Cc1ccc2c(c1)OCO2 (centres undefined)	609
Cc1nc(CCNC(=O)C2CCN(S(=O)(=O)c3ccc(Br)s3)CC2)cs1	759
Cc1ccc(NC(=O)N(C)CC2CCOCC2)cc1F	748
COc1cc(C(CC(=O)NC2CCCC2)N2Cc3ccccc3C2=O)cc(OC)c1OC (centres undefined)	755
CCCn1cnc2cc(CNC(=O)C(C)c3ccccc3)ccc21 (centres undefined)	631
Cc1ccc(NC(=O)N2CCC3(CC2)NC(=O)c2ccccc2O3)cc1Cl	831
O=C(Cn1c(=O)c2cc(-c3cccs3)nn2c2ncccc21)Nc1ccc(F)cc1	870
Cc1ccc(C2NC(=O)N(CC(=O)Nc3ccc(Br)cc3F)C3=C2C(=O)OC3)cc1 (centres undefined)	861
CC(NC(=O)c1cc2ccccc2[nH]1)C(=O)N1CCN(c2ccccn2)CC1 (centres undefined)	612
O=C(Cc1ccccc1)NCC(=O)NC(C(=O)N1CCCc2ccccc21)c1ccccc1 (centres undefined)	875
Cn1nc(C(=O)N2CCN(c3ccccc3Cl)CC2)ccc1=O	727
Fc1ccc(-c2noc(Cc3nnc(-c4ccc(Cl)cc4)o3)n2)cc1	1070

Compound	RP-LC retention time [s]
CCOc1ccccc1NC(=O)N1CCC(n2cnc3cc(Cl)ccc3c2=O)CC1	935
CC(C)CCNC(=O)[C@H](CC(C)C)NC(=O)[C@H]1O[C@@H]1C(=O)O	841
COc1ccc(NC(=O)C2CCCN(c3nnc4ccccn34)C2)cc1C(F)(F)F (centres undefined)	704
O=C(CCc1c(-c2ccccc2)nc2ccccn12)Nc1ccccc1Cl	668
Cc1cccc(NC(=O)c2cc(C(C)C)n3nccc3n2)c1	1160
CN1CCC(N2CCN(S(=O)(=O)c3ccccc3Cl)CC2)C1=O (centres undefined)	570
COC(=O)c1c(C)[nH]c(C(=O)N2CCCC(C(=O)N(C)Cc3ccco3)C2)c1C (centres undefined)	726
O=C(Nc1ccc2c(c1)OCCO2)N1CCC(Cc2noc(C3CCOCC3)n2)C1 (centres undefined)	698
CCN1C(=O)c2cccnc2Sc2cc(NC(=O)c3ccc(F)cc3)ccc21	832
CCn1cnc(S(=O)(=O)N2CCC(C(=O)N3CCN(c4cc(Cl)ccc4C)CC3)CC2)c1	916
C=CCNC(=O)c1ccc2[nH]c(C)c(C)c2c1	568
Cc1cc(C)n(-c2nc(CC(=O)NCc3ccc(F)cc3)cs2)n1	854
COc1ccc(NC(=O)CN2CCC(C(=O)NCc3ccc(F)cc3F)CC2)c(OC)c1	578
CCNC(=O)C1CCCN(C(=O)Nc2ccc(NC(=O)Nc3ccccc3F)cc2)C1 (centres undefined)	689
CCOC(=O)c1c(C)n(Cc2ccco2)c2ccc(OCC)cc12	617
O=C(NCc1cccc(Br)c1)c1ccc2ncnc(N3CCCC3)c2c1	679
CCCc1ccc(S(=O)(=O)N2CCc3c(c(-c4nnc(-c5ccc(F)cc5)o4)nn3C)C2)cc1	1070
COc1cc(NC(=O)N2CCN(CCn3c(C(F)(F)F)nc4cccnc43)CC2)cc(OC)c1	642
CN(Cc1ccccc1)C(=O)CSc1nnc(-c2ccc(Cl)cc2)o1	1030
Cc1cc(C2CCCN2C(=O)Nc2ccc(C)c(F)c2)on1 (centres undefined)	822
Cc1nc2cccnc2n1CC1CCCN(C(=O)Nc2ccc3c(c2)OCCO3)C1 (centres undefined)	614
Cc1ccc(-c2cn3cccnc3n2)cc1NC(=O)c1ccccc1Br	682
CCOC(=O)C1=C(C)NC(=O)NC1c1ccc(OCC(=O)N2CCCCC2)cc1 (centres undefined)	682

Compound	RP-LC retention time [s]
Cc1cccn2cc(C(=O)NCc3ccc4c(c3)OCO4)nc12	679
COc1ccccc1N1CCN(c2cc(SCC(=O)Nc3ccc(C)cc3C)ncn2)CC1	1040
CCOC(=O)c1c(C)[nH]c(C(=O)N2CCCC(C(=O)NCCC3=CCCCC3)C2)c1C (centres undefined)	893
NC(=O)C1CCN(C(=O)c2nnn(-c3ccc(Cl)cc3)c2-c2cccnc2)CC1	633
CCCNC(=O)Cn1c(C)cc(=O)n2nc(-c3ccc(Cl)cc3)nc12	871
CC(=O)Nc1cc2c(cc1S(=O)(=O)c1ccc(C)cc1)n(C)c(=O)n2C	683
CCOc1ccc(C(=O)N2CCCC2c2nc(-c3ccc(F)cc3F)no2)cc1 (centres undefined)	1010
O=C(Nc1cccc(C(F)(F)F)c1)C1CCc2nc(N3CCOCC3)ncc2C1 (centres undefined)	900
CSc1ccccc1NC(=O)c1nnn(-c2cc(Cl)ccc2C)c1C	1180
CCN1CCN(c2cc(C)c3cc(NC(=O)CCC4CCCC4)ccc3n2)CC1	620
COc1cccc(-c2nc(Cc3nc(-c4ccccc4OC)oc3C)no2)c1	1030
COC(=O)c1ccc(-c2nc3cnccn3c2Nc2ccc(C(C)C)cc2)cc1	1070
Cc1cccc(CN2CC(=O)N(c3ccccc3)[C@@H]3CS(=O)(=O)C[C@@H]32)c1	800
Cc1ccc2oc(CN3CCN(C(=O)Nc4ccccc4F)CC3)nc2c1	699
COc1ccccc1N1CCN(c2cc(SCC(=O)Nc3cc(F)ccc3F)ncn2)CC1	1130
Cc1ccc(C(=O)N2CCCCC2c2nncn2CC2CC2)s1 (centres undefined)	740
CSc1ccccc1NC(=O)C(=O)NCC1CCN(Cc2cc(C)oc2C)CC1	615
Nc1ccc(-c2nc3ccc(-c4nc5ccc(N)cc5[nH]4)cc3[nH]2)cc1	568
Cc1ccc(C)c(N2CCN(C(=O)Cc3csc4nc(-c5ccc(C)c(C)c5)cn34)CC2)c1	1120
O=c1c2ncccc2n(Cc2c(F)cccc2Cl)c(=O)n1Cc1cccnc1	852

Source: the METLIN SMRT retention time set (Domingo-Almenara et al. 2019)
